The melting point is the temperature of the solid-liquid transition.

For one data set, the target named is T1, integrin αvβ3 (Homo sapiens, UniProt P05106+P06756).
T1 construct: from tissue; host or cells: human placenta
Nature of the data set: Integrin αvβ3 assay (competition between vitronectin and the test substance for binding to solid phase-bound integrin αvβ3). Particulars: integrin αvβ3 from human placenta; human vitronectin as competing ligand; result in words only. Here is the method:
For the identification and assessment of integrin αvβ3 ligands, a test system was used which was based on competition between the natural integrin αvβ3 ligand vitronectin and the test substance for binding to solid phase-bound integrin αvβ3.
• Microtiter plates coated with 250 ng/ml of integrin αvβ3 in 0.05 M NaHCO3 pH 9.2; 0.1 ml/well; • saturation with 1% powdered milk/assay buffer; 0.3 ml/well; 0.5 h/RT • 3× washing with 0.05% Tween 20/assay buffer • test substance in 0.1% powdered milk/assay buffer, 50 μl/well+0 μg/ml or 2 μg/ml of human vitronectin (Boehringer Ingelheim T007) in 0.1% powdered milk/assay buffer, 50 μl/well; 1 h/RT • 3× washing with 0.05% Tween 20/assay buffer • 1 μg/ml of anti human vitronectin antibody coupled to peroxidase (Kordia SAVN-APHRP) in 0.1% powdered milk/assay buffer; 0.1 ml/well; 1 h/RT • 3× washing with 0.05% Tween 20/assay buffer • 0.1 ml/well of peroxidase substrate • stop reaction with 0.1 ml/well of 2 M H2SO4 • measurement of the absorption at 450 nm
Integrin αvβ3: Human placenta is solubilized with Nonidet and integrin αvβ3 affinity-purified on a GRGDSPK matrix (elution with EDTA). Impurities due to integrin αIIbβ3 and human serum albumin, and the detergent and EDTA are removed by anion-exchange chromatography.
Assay buffer: 50 mM Tris pH 7.5; 100 mM NaCl; 1 mM CaCl2; 1 mM MgCl2; 10 μM MnCl2 […]

For the compound `CC(C)(C)OC(=O)CC1CCC(=O)N(CC(=O)NCc2ccc(Nc3nc4ccccc4[nH]3)cc2)c2ccccc21` (centres unmarked) [Example 99, tert-Butyl [1-(2-{[4-(1H-benzimidazole-2-ylamino)benzyl]amino}-2-oxoethyl)-2-oxo-2,3,4,5-tetrahydro-1H-1-benzazepine-5-yl]acetate], the melting point is 231 °C (dec.).
`O=C(O)CC1CCC(=O)N(CC(=O)NCc2ccc(-c3nc4ccccc4[nH]3)cc2)c2ccccc21` (centres unmarked) [Example VII, [1-(2-{[4-(1H-Benzimidazol-2-yl)benzyl]amino}-2-oxoethyl)-2-oxo-2,3,4,5-tetrahydro-1H-1-benzazepin-5-yl]acetic acid]: on integrin αvβ3, the “IC50 values (concentration of the ligand at which 50% of the ligand is displaced)” value was “best result”.

For the origin of these results see patent US20080221082A1, “Ligands of Integrin Receptors” (priority 2000, published 2008).
